Measured values taken from ChEMBL document CHEMBL1201862, “PubChem BioAssay data set” (2004).
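Assay format: 96-well plates, 48-hour exposure. Here, GI50 denotes the concentration required for 50% inhibition of growth.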 Active and inactive are the calls of the source. Cut-off read from the data, not from the text of the source: active = GI50 up to about 1.1 µM and inactive = higher.

Legend:
Test in all cases: inhibition of tumour cell growth, NCI panel, 48 h
IGROV-1 = system: IGROV-1
T47D = system: T47D
COLO 205 = system: COLO 205
A498 = system: A498
CAKI-1 = system: CAKI-1
MDA-MB-435 = system: MDA-MB-435
PC-3 = system: PC-3
Hs-578T = system: Hs-578T
NCI-H460 = system: NCI-H460
HCT-15 = system: HCT-15
RXF 393 = system: RXF 393
OVCAR-8 = system: OVCAR-8
NCI-H226 = system: NCI-H226
Malme-3M = system: Malme-3M
SF-268 = system: SF-268
ACHN = system: ACHN
SF-539 = system: SF-539
TK-10 = system: TK-10
SW-620 = system: SW-620
HL-60 = system: HL-60

SMILES	GI50 (IGROV-1)	GI50 (T47D)	GI50 (COLO 205)	GI50 (A498)	GI50 (CAKI-1)	GI50 (MDA-MB-435)	GI50 (PC-3)	GI50 (Hs-578T)	GI50 (NCI-H460)	GI50 (HCT-15)	GI50 (RXF 393)	GI50 (OVCAR-8)	GI50 (NCI-H226)	GI50 (Malme-3M)	GI50 (SF-268)	GI50 (ACHN)	GI50 (SF-539)	GI50 (TK-10)	GI50 (SW-620)	GI50 (HL-60)
C/C(=N/NC(=O)c1ccncc1)c1ccc(NC(=O)C(=O)Nn2c(S)nc3ccccc3c2=O)cc1	37.2 µM (inactive)	> 100 µM (inactive)	> 100 µM (inactive)	> 100 µM (inactive)	> 100 µM (inactive)	> 100 µM (inactive)	> 100 µM (inactive)	> 100 µM (inactive)	> 100 µM (inactive)	> 100 µM	> 100 µM (inactive)	> 100 µM (inactive)	> 100 µM (inactive)	> 100 µM (inactive)	> 100 µM (inactive)	> 100 µM (inactive)	> 100 µM (inactive)	> 100 µM (inactive)	> 100 µM (inactive)	–
COc1ccc(CCNC(=O)CCCCCO)cc1OC	> 100 µM (inactive)	> 100 µM (inactive)	> 100 µM (inactive)	> 100 µM (inactive)	> 100 µM (inactive)	> 100 µM (inactive)	> 100 µM (inactive)	> 100 µM (inactive)	> 100 µM (inactive)	> 100 µM	> 100 µM (inactive)	> 100 µM (inactive)	> 100 µM (inactive)	–	> 100 µM (inactive)	> 100 µM (inactive)	> 100 µM (inactive)	> 100 µM (inactive)	> 100 µM (inactive)	> 100 µM (inactive)
CN1C(NCCO)=NS(=O)(=O)c2ccccc21	> 100 µM (inactive)	> 100 µM (inactive)	> 100 µM (inactive)	> 100 µM (inactive)	> 100 µM (inactive)	> 100 µM (inactive)	> 100 µM (inactive)	> 100 µM (inactive)	> 100 µM (inactive)	> 100 µM	> 100 µM (inactive)	> 100 µM (inactive)	> 100 µM (inactive)	–	> 100 µM (inactive)	> 100 µM (inactive)	> 100 µM (inactive)	> 100 µM (inactive)	> 100 µM (inactive)	> 100 µM (inactive)
CCc1nn(CN2CCN(C)CC2)c(=S)n1/N=C\c1ccc(-c2ccc([N+](=O)[O-])cc2)o1	89.9 µM (inactive)	19.9 µM (inactive)	–	26 µM (inactive)	74.5 µM (inactive)	66.1 µM (inactive)	54.3 µM (inactive)	56.9 µM (inactive)	57.4 µM (inactive)	61.9 µM	26.8 µM (inactive)	35.5 µM (inactive)	22.7 µM (inactive)	42 µM (inactive)	37.8 µM (inactive)	36.9 µM (inactive)	–	28.5 µM (inactive)	–	> 100 µM (inactive)
COc1ccc(NC(=S)N/N=C(\C)c2nc3cccnc3[nH]2)cc1	5.55 µM (inactive)	3.26 µM (inactive)	4.52 µM (inactive)	14.3 µM (inactive)	3.96 µM (inactive)	6.62 µM (inactive)	4.48 µM (inactive)	19.6 µM (inactive)	2.94 µM (inactive)	4.36 µM	–	3.19 µM (inactive)	3.73 µM (inactive)	7.59 µM (inactive)	4.04 µM (inactive)	4.29 µM (inactive)	2.9 µM (inactive)	0.637 µM (active)	6.87 µM (inactive)	2.69 µM (inactive)
Cc1ccc2c(c1)C(=O)C1(Cc3ccccc3C1=O)C2 (stereo not given)	> 100 µM (inactive)	> 100 µM (inactive)	> 100 µM (inactive)	> 100 µM (inactive)	–	> 100 µM (inactive)	> 100 µM (inactive)	> 100 µM (inactive)	> 100 µM (inactive)	> 100 µM	47 µM (inactive)	> 100 µM (inactive)	> 100 µM (inactive)	> 100 µM (inactive)	> 100 µM (inactive)	> 100 µM (inactive)	> 100 µM (inactive)	> 100 µM (inactive)	> 100 µM (inactive)	> 100 µM (inactive)
C#CC(O)/C=C/CCCCCCC#CC/C=C\CC#CCCCCCC/C=C/C(O)C#C (stereo not given)	0.561 µM (active)	1.4 µM (inactive)	2 µM (inactive)	3.21 µM (inactive)	2.29 µM (inactive)	2.34 µM (inactive)	11.6 µM (inactive)	5.9 µM (inactive)	4.35 µM (inactive)	2.55 µM	14.1 µM (inactive)	3.03 µM (inactive)	5.32 µM (inactive)	–	2.96 µM (inactive)	3.9 µM (inactive)	24.5 µM (inactive)	2.99 µM (inactive)	2.35 µM (inactive)	1.77 µM (inactive)
COc1ccccc1NC(=S)N/N=C/c1c(C)n(C)n(-c2ccccc2)c1=O	> 100 µM (inactive)	> 100 µM (inactive)	> 100 µM (inactive)	71 µM (inactive)	> 100 µM (inactive)	34.6 µM (inactive)	> 100 µM (inactive)	37.8 µM (inactive)	> 100 µM (inactive)	41.3 µM	34.9 µM (inactive)	56.9 µM (inactive)	82.4 µM (inactive)	–	45.1 µM (inactive)	> 100 µM (inactive)	49.9 µM (inactive)	> 100 µM (inactive)	91.8 µM (inactive)	> 100 µM (inactive)
N=C(N)N/N=C/c1c(-c2ccc(Cl)c(Cl)c2Cl)nc2sccn12	1.27 µM (inactive)	1.59 µM (inactive)	1.42 µM (inactive)	1.1 µM (active)	1.82 µM (inactive)	1.85 µM (inactive)	2.72 µM (inactive)	1.91 µM (inactive)	1.7 µM (inactive)	1.63 µM	–	1.71 µM (inactive)	1.68 µM (inactive)	–	1.76 µM (inactive)	3.23 µM (inactive)	3.33 µM (inactive)	1.4 µM (inactive)	1.69 µM (inactive)	1.63 µM (inactive)
Cc1ccsc1C(=O)C(CC(=O)c1cccs1)c1ccsc1 (stereo not given)	> 100 µM (inactive)	14.5 µM (inactive)	> 100 µM (inactive)	> 100 µM (inactive)	> 100 µM (inactive)	> 100 µM (inactive)	45.8 µM (inactive)	> 100 µM (inactive)	33.5 µM (inactive)	> 100 µM	> 100 µM (inactive)	> 100 µM (inactive)	> 100 µM (inactive)	> 100 µM (inactive)	> 100 µM (inactive)	> 100 µM (inactive)	> 100 µM (inactive)	> 100 µM (inactive)	> 100 µM (inactive)	–
CC(=O)n1cc(OP(=O)(Oc2ccccc2)Oc2ccccc2)c2ccccc21	8.53 µM (inactive)	32.7 µM (inactive)	13.2 µM (inactive)	54 µM (inactive)	13.1 µM (inactive)	17.9 µM (inactive)	10.3 µM (inactive)	40.8 µM (inactive)	22.6 µM (inactive)	29 µM	–	39.7 µM (inactive)	27.7 µM (inactive)	36.4 µM (inactive)	19.7 µM (inactive)	–	15.8 µM (inactive)	50.6 µM (inactive)	44.2 µM (inactive)	16 µM (inactive)
COc1ccc(OC)c(N2C(=O)/C(=C\c3ccccc3)SC2c2cc(OC)c(OC)c(OC)c2)c1 (stereo not given)	29.8 µM (inactive)	12.4 µM (inactive)	> 91.6 µM (inactive)	51.5 µM (inactive)	> 84.3 µM (inactive)	26.5 µM (inactive)	> 89.5 µM (inactive)	> 78 µM (inactive)	–	58.3 µM	11.6 µM (inactive)	> 100 µM (inactive)	> 100 µM (inactive)	> 100 µM (inactive)	> 100 µM (inactive)	1.09 µM (active)	–	> 100 µM (inactive)	46.6 µM (inactive)	58.9 µM (inactive)
N#Cc1sc2c(c1OC(=O)c1ccc(Cl)cc1Cl)c(=O)n(-c1ccccc1)c(=S)n2-c1ccccc1	17 µM (inactive)	26.6 µM (inactive)	19.7 µM (inactive)	24.9 µM (inactive)	23.7 µM (inactive)	19.7 µM (inactive)	25.4 µM (inactive)	36.7 µM (inactive)	33.3 µM (inactive)	21.5 µM	19.8 µM (inactive)	19.9 µM (inactive)	23.8 µM (inactive)	–	29.4 µM (inactive)	29 µM (inactive)	18.2 µM (inactive)	33.6 µM (inactive)	24.5 µM (inactive)	19.6 µM (inactive)
NC(CSCc1ccc(I)cc1)C(=O)O (stereo not given)	> 100 µM (inactive)	> 100 µM (inactive)	> 100 µM (inactive)	> 100 µM (inactive)	> 100 µM (inactive)	> 100 µM (inactive)	> 100 µM (inactive)	80.7 µM (inactive)	> 100 µM (inactive)	> 100 µM	> 100 µM (inactive)	> 100 µM (inactive)	> 100 µM (inactive)	> 100 µM (inactive)	> 100 µM (inactive)	> 100 µM (inactive)	–	> 100 µM (inactive)	> 100 µM (inactive)	> 100 µM (inactive)
O=C(/C=C/c1ccc(OCc2ccccc2)cc1)NCc1ccc(C(=O)NCCc2ccccc2)cc1	> 100 µM (inactive)	> 100 µM (inactive)	> 100 µM (inactive)	> 100 µM (inactive)	> 100 µM (inactive)	> 100 µM (inactive)	> 100 µM (inactive)	> 100 µM (inactive)	> 100 µM (inactive)	> 100 µM	64.1 µM (inactive)	> 100 µM (inactive)	> 100 µM (inactive)	> 100 µM (inactive)	> 100 µM (inactive)	> 100 µM (inactive)	> 100 µM (inactive)	> 100 µM (inactive)	> 100 µM (inactive)	–
